Experimental data: paper PMC3897205 (Bioorganic & medicinal chemistry letters, 2012)

What was measured:
hM1 [1] = target: T1, hM1 (Homo sapiens, UniProt P11229); assay type: cell-based; settings: for change in hM1 antagonist potency relative to a comparator compound: fold change in words; for hM1 antagonist activity in words: SAR discussion of Table 1 analogs
T1 sequence (P11229 1-460): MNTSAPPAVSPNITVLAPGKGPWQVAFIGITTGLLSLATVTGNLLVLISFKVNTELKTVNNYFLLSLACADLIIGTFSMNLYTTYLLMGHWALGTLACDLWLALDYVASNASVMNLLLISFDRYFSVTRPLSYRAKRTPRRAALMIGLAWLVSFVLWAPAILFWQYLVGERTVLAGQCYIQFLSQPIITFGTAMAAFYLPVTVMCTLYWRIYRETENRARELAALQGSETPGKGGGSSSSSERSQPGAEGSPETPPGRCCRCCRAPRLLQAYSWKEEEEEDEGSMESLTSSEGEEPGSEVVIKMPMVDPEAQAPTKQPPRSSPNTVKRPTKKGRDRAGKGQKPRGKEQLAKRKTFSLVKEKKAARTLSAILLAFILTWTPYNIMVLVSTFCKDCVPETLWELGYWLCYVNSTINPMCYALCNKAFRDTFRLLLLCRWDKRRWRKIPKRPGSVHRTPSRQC

hM1 [2] = target: T1, hM1; experiment: [3H]NMS radioligand displacement at hM1 under equilibrium conditions; assay type: binding
M1 = target: T2, M1 (Homo sapiens, UniProt P11229); experiment: Schild analysis, calcium mobilization in M1-expressing CHO cells; assay type: cell-based; settings: for Schild regression slope: antagonism of ACh, mean ± S.E.M. of three experiments in triplicate; for mode of antagonism of M1 response to ACh: calcium mobilization assay
T2 sequence (P11229 1-460): T1 sequence (P11229 1-460)

change in hM1 antagonist potency relative to a comparator compound (hM1 [1])	hM1 antagonist activity in words (hM1 [1])	SMILES	also measured
only a twofold decrease in potency	–	CN1CCCN(C(=O)C(Cc2ccccc2)c2ccccc2)CC1 (centres unmarked) [Compound 5u]	–
–	complete loss of activity	O=C(C(Cc1ccccc1)c1ccccc1)N1CCN(CC(F)(F)F)CC1 (centres unmarked) [Compound 5t]	–
–	minimal antagonist activity	O=C(C(Cc1ccccc1)c1ccccc1)N1CCN(c2ccncc2)CC1 (centres unmarked) [Compound 5s]	–
–	moderate improvement in potency	CN1CCN(C(=O)[C@H](Cc2ccccc2)c2ccccc2)CC1 (single isomer, unassigned) [Compound 6]	displacement of radiolabeled NMS (hM1 [2]): completely displace radiolabeled NMS; Schild regression slope (M1): 0.97 ± 0.02; mode of antagonism of M1 response to ACh (M1): competitively antagonizes M1 response to ACh in a concentration-dependent manner
–	nearly complete loss of activity	O=C(C(Cc1ccccc1)c1ccccc1)N1CCCNCC1 (centres unmarked) [Compound 5z]	–
–	retained moderate potency	CC(C)N1CCCN(C(=O)C(Cc2ccccc2)c2ccccc2)CC1 (centres unmarked) [Compound 5w]	–
roughly equipotent with 4	–	CCN1CCCN(C(=O)C(Cc2ccccc2)c2ccccc2)CC1 (centres unmarked) [Compound 5v]	–
–	retained moderate potency	O=C(C(Cc1ccccc1)c1ccccc1)N1CC[C@H]2CCCN2CC1 (some centres unmarked) [Compound 5y]	–

The remaining lines, values behind:

SMILES	change in hM1 antagonist potency relative to a comparator compound (hM1 [1])	hM1 antagonist activity in words (hM1 [1])	also measured
CCN1CCN(C(=O)C(Cc2ccccc2)c2ccccc2)CC1C (centres unmarked) [Compound 5f]	increase potency roughly sixfold	–	–
COCCN1CCN(C(=O)C(Cc2ccccc2)c2ccccc2)CC1 (centres unmarked) [Compound 5r]	–	significant drop in potency	–
CC(C)N1CCN(C(=O)C(Cc2ccccc2)c2ccccc2)CC1 (centres unmarked) [Compound 5b]	only a minor potency decrease	–	–
C[N+]1(C)CCN(C(=O)C(Cc2ccccc2)c2ccccc2)CC1 (centres unmarked) [Compound 5h]	–	only modest activity	–
CN1CCN(C(=O)C(Cc2ccccc2)c2ccccc2)CC1 (centres unmarked) [Compound 4]	roughly fourfold improvement in antagonist potency	–	–
CN(C)CCN(C)C(=O)C(Cc1ccccc1)c1ccccc1 (centres unmarked) [Compound 5n]	–	large losses in potency	–
CN1CCN(C(=O)[C@@](F)(Cc2ccccc2)c2ccccc2)CC1 (single isomer, unassigned) [Compound 8f]	–	–	displacement of radiolabeled NMS (hM1 [2]): completely displace radiolabeled NMS; Schild regression slope (M1): 1.07 ± 0.02; mode of antagonism of M1 response to ACh (M1): competitively antagonizes M1 response to ACh in a concentration-dependent manner; selectivity for hM1 (hM1 [1]; against hM1-5, calcium mobilization assay): modest selectivity for hM1
CN(C)CCNC(=O)C(Cc1ccccc1)c1ccccc1 (centres unmarked) [Compound 5m]	–	large losses in potency	–
CCN1CCN(C(=O)C(Cc2ccccc2)c2ccccc2)CC1(C)C (centres unmarked) [Compound 5g]	increase potency roughly sixfold	–	–
O=C(C(Cc1ccccc1)c1ccccc1)N1CCNCC1 (centres unmarked) [Compound 5d]	–	loss of activity	–
CCN1CCN(C(=O)C(Cc2ccccc2)c2ccccc2)CC1 (centres unmarked) [Compound 5a]	sixfold drop in potency	–	–
CC(C)CN1CCN(C(=O)C(Cc2ccccc2)c2ccccc2)CC1 (centres unmarked) [Compound 5c]	–	nearly abolished antagonist activity	–
